The subject of this assay is RS411 cells. Kind of assay: Cell Viability CTG Assay (CellTiter Glo) in RS411 cells. The format is cell-based. To be noted: Homo sapiens. As for the experimental part:
Example 23. Cell Viability CTG Assay
Day 0: Compounds or DMSO 60 nL were stamped to the cell plate as the platemap. RS411 cells were centrifuged at 800 rpm for 5 min, suspended with culture medium, and counted with Countess (Invitrogen). The cell density was adjusted to the recommend information. 30 μL of cell solution (1000 cells/well) was added to the assay plate as the platemap and 30 uL of media was added to column 2 and column 23 as the platemap. The plate was spun down briefly. The final concentration of the compounds started at 10 μM (3 fold dilution and 11 doses) and final DMSO concentration was 0.2%. The plate was spun down briefly and incubated at 37° C., 5% CO2 for 1-4 days.
30 μL CellTiter Glo reagent was added to each well and the plate was centrifuged at 1000 rpm for 30 sec. The plate was shaken for 1 min and centrifuged at 1000 rpm for 30 sec. The plate was incubated at RT for 10 min to stabilize the luminescent signal and the luminescence was read by EnVision.
The letter codes for IC50 indicate the concentration of compound required to affect 50% of cells: A (<0.05 μM), B (0.05-0.1 μM), C (0.1-0.5 μM), D (0.5-1.0 μM), and E (>1.0 μM).

What is called IC50 is the point on the concentration scale where inhibition reaches its midpoint.

As to `CN1[C@@H](C(=O)N[C@H]2CC[C@H](CN3CCC(C#Cc4ccc5c(c4)n(C)c(=O)n5C4CCC(=O)NC4=O)CC3)CC2)[C@H](c2cccc(Cl)c2F)[C@]2(C(=O)Nc3cc(Cl)ccc32)C12CCC(C)(C)CC2` (some centres unmarked) [I-123], the IC50 (RS4-11, 24 h, duration 1 day) was < 50 nM.
As to `CC(C)[C@@H](CS(=O)(=O)C(C)C)N1C(=O)[C@@](C)(CC(=O)NCCCCCCCCc2ccc3c(c2)n(C)c(=O)n3C2CCC(=O)NC2=O)C[C@H](c2cccc(Cl)c2)[C@H]1c1ccc(Cl)cc1` (some centres unmarked) [I-21], the IC50 (RS4-11, 96 h, duration 4 days) fell in the range of 50 to 100 nM.
As to `Cn1c(=O)n(C2CCC(=O)NC2=O)c2ccc(CCN3CC4(CCN(C[C@H]5CC[C@H](NC(=O)[C@@H]6NC7(CCCCC7)[C@@]7(C(=O)Nc8cc(Cl)ccc87)[C@H]6c6cccc(Cl)c6F)CC5)CC4)C3)cc21` (some centres unmarked) [I-154], the IC50 (RS4-11, 24 h, duration 1 day) was < 50 nM.
For `COc1cc2c(cc1OC(C)C)[C@H](c1ccc(Cl)cc1)N(c1ccc(N(C)CC3CCN(C(=O)Cc4ccc5c(c4)n(C)c(=O)n5C4CCC(=O)NC4=O)CC3)cc1)C(=O)C2` (some centres unmarked) [I-181], the IC50 (RS4-11, 24 h, duration 1 day) is > 1000 nM.
Still for that read-out and setting: the result for `O=C1CCC(N2Cc3c(C#CC4CCN(C(=O)C56CCC(NC(=O)[C@@H]7NC8(CCCCC8)[C@@]8(C(=O)Nc9cc(Cl)ccc98)[C@H]7c7cccc(Cl)c7F)(CC5)CC6)CC4)cccc3C2=O)C(=O)N1` (some centres unmarked) [I-143] reads < 50 nM.
Regarding `CC(C)[C@@H](CS(=O)(=O)C(C)C)N1C(=O)[C@@](C)(CC(=O)Nc2ccc(C(=O)NCCCCCc3ccc4c(c3)n(C)c(=O)n4C3CCC(=O)NC3=O)cc2)C[C@H](c2cccc(Cl)c2)[C@H]1c1ccc(Cl)cc1` (some centres unmarked) [I-14], the IC50 (RS4-11, 96 h, duration 4 days) was < 50 nM.
On to `CCOc1cc(C(C)(C)C)ccc1C1=N[C@@H](c2ccc(Cl)cc2)[C@@H](c2ccc(Cl)cc2)N1C(=O)N1CCN(CC#Cc2cccc3c2CN(C2CCC(=O)NC2=O)C3=O)CC1` (stereo partly drawn) [I-4, 3-[4-[3-[4-[(4S,5R)-2-(4-tert-butyl-2-ethoxy-phenyl)-4,5-bis(4-chlorophenyl)-4,5-dihydroimidazole-1-carbonyl]piperazin-1-yl]prop-1-ynyl]-1-oxo-isoindolin-2-yl]piperidine-2,6-dione], for which the concentration for half-maximal inhibition (IC50) (RS4-11, 96 h, duration 4 days) fell in the range of 50 to 100 nM.
`Cn1c(=O)n(C2CCC(=O)NC2=O)c2cccc(C#C[C@@H]3CN(C(=O)c4ccc(NC(=O)[C@@H]5NC6(CCCCC6)[C@@]6(C(=O)Nc7cc(Cl)ccc76)[C@H]5c5cccc(Cl)c5F)cc4)CCO3)c21` (some centres unmarked) [I-47]: the IC50 (RS4-11, 24 h, duration 1 day) is 50 to 100 nM.
Still for that read-out and setting: the result for `Cn1c(=O)n(C2CCC(=O)NC2=O)c2cccc(N3CCC4(CC3)CN(C(=O)c3ccc(NC(=O)[C@@H]5NC6(CCCCC6)[C@@]6(C(=O)Nc7cc(Cl)ccc76)[C@H]5c5cccc(Cl)c5F)cc3)C4)c21` (some centres unmarked) [I-65] reads < 50 nM.
Same read-out and setting: the result for `Cn1c(=O)n(C2CCC(=O)NC2=O)c2ccc(C3CCN(C(=O)[C@H]4CC[C@H](NC(=O)[C@@H]5NC6(CCCCC6)[C@@]6(C(=O)Nc7cc(Cl)ccc76)[C@H]5c5cccc(Cl)c5F)CC4)CC3)cc21` (some centres unmarked) [I-174] reads < 50 nM; that for `Cn1c(=O)n(C2CCC(=O)NC2=O)c2ccc(C#CC3CCN(C(=O)[C@H]4CC[C@H](NC(=O)[C@@H]5NC6(CCC(C)(C)CC6)[C@@]6(C(=O)Nc7cc(Cl)ccc76)[C@H]5c5cccc(Cl)c5F)CO4)CC3)cc21` (some centres unmarked) [I-83], < 50 nM.
Still for that read-out and setting: the result for `Cn1c(=O)n(C2CCC(=O)NC2=O)c2ccc(C#CC3CCN(C[C@H]4CC[C@H](NC(=O)[C@@H]5NC6(CCOCC6)[C@@]6(C(=O)Nc7cc(Cl)ccc76)[C@H]5c5cccc(Cl)c5F)CC4)CC3)cc21` (some centres unmarked) [I-153] reads < 50 nM; that for `CC(C)[C@@H](CS(=O)(=O)C(C)C)N1C(=O)[C@@](C)(CC(=O)N[C@H]2CC[C@H](CN3CCC(C#Cc4cccn5c(N6CCC(=O)NC6=O)cnc45)CC3)CC2)C[C@H](c2cccc(Cl)c2)[C@H]1c1ccc(Cl)cc1` [I-170], 100 to 500 nM; that for `CN1[C@@H](C(=O)N[C@H]2CC[C@H](CN3CCC4(CC3)CN(CCc3ccc5c(c3)n(C)c(=O)n5C3CCC(=O)NC3=O)C4)CC2)[C@H](c2cccc(Cl)c2F)[C@]2(C(=O)Nc3cc(Cl)ccc32)C12CCCCC2` (some centres unmarked) [I-158], < 50 nM.
Turning to `C#CCCCCCCCN1C(=O)[C@@]2(c3ccc(Cl)cc31)[C@@H](c1cccc(Cl)c1F)[C@H](C(=O)N[C@H]1C[C@@](C)(O)C1)N(C)C21CCCCC1` [I-128, (3′R,4'S,5′R)-6″-chloro-4′-(3-chloro-2-fluorophenyl)-N-((1s,3S)-3-hydroxy-3-methylcyclobutyl)-1′-methyl-1″-(non-8-yn-1-yl)-2″-oxodispiro[cyclohexane-1,2′-pyrrolidine-3′,3″-indoline]-5′-carboxamide], for the setting “RS4-11, 24 h, duration 1 day”, the half-maximal inhibitory concentration (IC50) is > 1000 nM.
Same read-out and setting: with `Cn1c(=O)n(C2CCC(=O)NC2=O)c2ccc(CN3CCN(C[C@H]4CC[C@H](NC(=O)[C@@H]5NC6(CCC(C)(C)CC6)[C@@]6(C(=O)Nc7cc(Cl)ccc76)[C@H]5c5ccnc(Cl)c5F)CC4)CC3)cc21` (some centres unmarked) [I-205] the figure was < 50 nM.
Consider `CC(C)[C@@H](CS(=O)(=O)C(C)C)N1C(=O)[C@@](C)(CC(=O)Nc2ccc(C(=O)NCCCCCCCNC(=O)c3ccc(NC(=O)C[C@@]4(C)C[C@H](c5cccc(Cl)c5)[C@@H](c5ccc(Cl)cc5)N([C@H](CS(=O)(=O)C(C)C)C(C)C)C4=O)cc3)cc2)C[C@H](c2cccc(Cl)c2)[C@H]1c1ccc(Cl)cc1` [I-8, 4-[2-[(3R,5R,6S)-5-(3-chlorophenyl)-6-(4-chlorophenyl)-3-methyl-1-[(2S)-3-methyl-1-(propane-2-sulfonyl)butan-2-yl]-2-oxopiperidin-3-yl]acetamido]-N-[7-[(4-[2-[(3R,5R,6S)-5-(3-chlorophenyl)-6-(4-chlorophenyl)-3-methyl-1-[(2S)-3-methyl-1-(propane-2-sulfonyl)butan-2-yl]-2-oxopiperidin-3-yl]acetamido]phenyl)formamido]heptyl]benzamide], for which the IC50 (RS4-11, 96 h, duration 4 days) is > 1000 nM.
The same measure, in the same setting: with `CC(C)[C@@H](CS(=O)(=O)C(C)C)N1C(=O)[C@@](C)(CC(=O)NCCCCCCCCCCCNC(=O)C[C@@]2(C)C[C@H](c3cccc(Cl)c3)[C@@H](c3ccc(Cl)cc3)N([C@H](CS(=O)(=O)C(C)C)C(C)C)C2=O)C[C@H](c2cccc(Cl)c2)[C@H]1c1ccc(Cl)cc1` [I-23] the figure was > 1000 nM.
For `COc1cc2c(cc1OC(C)C)C(c1ccc(Cl)cc1)N(c1ccc(N(C)C[C@H]3CC[C@H](N(C)CCCC#Cc4c(OC)ccc5c4n(C)c(=O)n5C4CCC(=O)NC4=O)CC3)cc1)C(=O)C2` (some centres unmarked) [I-206], the IC50 (RS4-11, 24 h, duration 1 day) is < 50 nM.
The same measure, in the same setting: with `Cn1c(=O)n(C2CCC(=O)NC2=O)c2cccc(C#CC3CCN(Cc4ccc(CNC(=O)[C@@H]5NC6(CCCCC6)[C@@]6(C(=O)Nc7cc(Cl)ccc76)[C@H]5c5cccc(Cl)c5F)cc4)CC3)c21` (some centres unmarked) [I-116] the figure was > 1000 nM; with `CN1[C@@H](C(=O)Nc2ccc(C(=O)NCCCCCc3ccc4c(c3)n(C)c(=O)n4C3CCC(=O)NC3=O)cc2)[C@H](c2cccc(Cl)c2F)[C@]2(C(=O)Nc3cc(Cl)ccc32)C12CCCCC2` (some centres unmarked) [I-101], < 50 nM.
The same measure, in the same setting: with `Cn1c(=O)n(C2CCC(=O)NC2=O)c2ccc(CCN3CCN(C[C@H]4CC[C@H](NC(=O)[C@@H]5NC6(CCC(C)(C)CC6)[C@@]6(C(=O)Nc7cc(Cl)ccc76)[C@H]5c5ccnc(Cl)c5F)CC4)CC3)cc21` (some centres unmarked) [I-196] the figure was < 50 nM.
On the same count and under the same terms, the result for `Cn1c(=O)n(C2CCC(=O)NC2=O)c2ccc(CCCCCNC(=O)c3cccc(NC(=O)[C@@H]4NC5(CCCCC5)[C@@]5(C(=O)Nc6cc(Cl)ccc65)[C@H]4c4cccc(Cl)c4F)c3)cc21` (some centres unmarked) [I-78] reads < 50 nM; that for `CC(C)(C)C[C@@H]1N[C@@H](C(=O)N[C@H]2CC[C@H](CN3CCC(C#Cc4ccn5c(N6CCC(=O)NC6=O)cnc5c4)CC3)CC2)[C@H](c2cccc(Cl)c2F)[C@@]1(C#N)c1ccc(Cl)cc1F` [I-135], > 1000 nM.
In the case of `CC(C)[C@@H](CS(=O)(=O)C(C)C)N1C(=O)[C@@](C)(CC(=O)NCCCCCCC#Cc2cccc3c2CN(C2CCC(=O)NC2=O)C3=O)C[C@H](c2cccc(Cl)c2)[C@H]1c1ccc(Cl)cc1` (some centres unmarked) [I-26], the IC50 (RS4-11, 96 h, duration 4 days) was in the range of 50 to 100 nM.
On to `Cn1c(=O)n(C2CCC(=O)NC2=O)c2ccc(CCCCCNC(=O)[C@H]3CC[C@H](NC(=O)[C@@H]4NC5(CCCCC5)[C@@]5(C(=O)Nc6cc(Cl)ccc65)[C@H]4c4cccc(Cl)c4F)CC3)cc21` (stereo partly drawn) [I-67, (3′R,4'S,5′R)-6″-chloro-4′-(3-chloro-2-fluorophenyl)-N-((1r,4R)-4-((5-(1-(2,6-dioxopiperidin-3-yl)-3-methyl-2-oxo-2,3-dihydro-1H-benzo[d]imidazol-5-yl)pentyl)carbamoyl)cyclohexyl)-2″-oxodispiro[cyclohexane-1,2′-pyrrolidine-3′,3″-indoline]-5′-carboxamide], for which the IC50 (RS4-11, 24 h, duration 1 day) is < 50 nM.
Consider `COc1cc(C(=O)NCCCC#Cc2ccc3c(c2)n(C)c(=O)n3C2CCC(=O)NC2=O)ccc1NC(=O)[C@@H]1N[C@@H](CC(C)(C)C)[C@](C#N)(c2ccc(Cl)cc2F)[C@H]1c1cccc(Cl)c1F` (some centres unmarked) [I-17], for which the IC50 (RS4-11, 96 h, duration 4 days) was < 50 nM.
Regarding `Cn1c(=O)n(C2CCC(=O)NC2=O)c2ccc(CCCCCOC3CCN(C(=O)c4coc([C@@H]5NC6(CCCCC6)[C@@]6(C(=O)Nc7cc(Cl)ccc76)[C@H]5c5cccc(Cl)c5F)n4)CC3)cc21` (some centres unmarked) [I-172], the IC50 (RS4-11, 24 h, duration 1 day) was > 1000 nM.
Turning to `Cn1c(=O)n(C2CCC(=O)NC2=O)c2ccc(CCCCCNC(=O)c3ccc(NC(=O)[C@@H]4NC5(CCC(C)(C)CC5)[C@@]5(C(=O)Nc6cc(Cl)ccc65)[C@H]4c4cccc(Cl)c4F)cc3)cc21` (stereo partly drawn) [I-74, (3′R,4'S,5′R)-6″-chloro-4′-(3-chloro-2-fluorophenyl)-N-(4-((5-(1-(2,6-dioxopiperidin-3-yl)-3-methyl-2-oxo-2,3-dihydro-1H-benzo[d]imidazol-5-yl)pentyl)carbamoyl)phenyl)-4,4-dimethyl-2″-oxodispiro[cyclohexane-1,2′-pyrrolidine-3′,3″-indoline]-5′-carboxamide], the IC50 (RS4-11, 24 h, duration 1 day) was < 50 nM.

Source of the values: patent US11932624B2, “MDM2 degraders and uses thereof” (Kymera Therapeutics, Inc., priority 2020, dated 2024).
